Data as given in the supplement of paper PMC10307832.

Tests used:
Experiment in all cases: relative viability (nuclei count vs DMSO), 5 days (fraction); higher = more cells survive
[1] = compound: O=C1NC(=O)[C@@H](c2cn3c4c(cccc24)CCC3)[C@@H]1c1c[nH]c2ccccc12 [Tivantinib] + Cc1nc(Nc2ncc(C(=O)Nc3c(C)cccc3Cl)s2)cc(N2CCN(CCO)CC2)n1 [Dasatinib] (partner 0.075 µM)
Procedure, shortened: (§1)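 Five library-drug doses in √10 steps were combined with a fixed anchor-drug dose, or a single drug was given alone, by pin tool to lung cancer cell lines in 1536-well plates the day after seeding. Nuclei were stained and counted after 5 days. Relative viability is the nuclei count in treated wells over that in vehicle wells, taken as the median of duplicate plates.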

[2] = compound: CC1(COc2ccc3c(c2)ncn3-c2ccc3cccc(N4CCC(N)CC4)c3n2)COC1 [Crenolanib] + C[C@@H](Oc1cc(-c2cnn(C3CCNCC3)c2)cnc1N)c1c(Cl)ccc(F)c1Cl [Crizotinib] (partner 1 µM)
Procedure, shortened: as §1

[3] = compound: O=C1NC(=O)[C@@H](c2cn3c4c(cccc24)CCC3)[C@@H]1c1c[nH]c2ccccc12 [Tivantinib] + CCNC(=O)c1noc(-c2cc(C(C)C)c(O)cc2O)c1-c1ccc(CN2CCOCC2)cc1 [Luminespib] (partner 0.01 µM)
Procedure, shortened: as §1

[4] = compound: O=C1NC(=O)[C@@H](c2cn3c4c(cccc24)CCC3)[C@@H]1c1c[nH]c2ccccc12 [Tivantinib] + CC1(C)CCC(c2ccc(Cl)cc2)=C(CN2CCN(c3ccc(C(=O)NS(=O)(=O)c4ccc(N[C@H](CCN5CCOCC5)CSc5ccccc5)c(S(=O)(=O)C(F)(F)F)c4)cc3)CC2)C1 [Navitoclax] (partner 0.5 µM)
Procedure, shortened: as §1

| Cell Line | relative viability ([1]; first compound 0.01 µM) | relative viability ([1]; first compound 0.03162 µM) | relative viability ([1]; first compound 0.1 µM) | relative viability ([1]; first compound 0.3162 µM) | relative viability ([2]; first compound 0.01 µM) | relative viability ([2]; first compound 0.03162 µM) | relative viability ([2]; first compound 0.1 µM) | relative viability ([2]; first compound 0.3162 µM) | relative viability ([2]; first compound 1 µM) | relative viability ([3]; first compound 0.01 µM) | relative viability ([3]; first compound 0.03162 µM) | relative viability ([3]; first compound 0.1 µM) | relative viability ([3]; first compound 0.3162 µM) | relative viability ([4]; first compound 0.01 µM) | relative viability ([4]; first compound 0.03162 µM) | relative viability ([4]; first compound 0.1 µM) | relative viability ([4]; first compound 0.3162 µM) |
| --- | --- | --- | --- | --- | --- | --- | --- | --- | --- | --- | --- | --- | --- | --- | --- | --- | --- |
| HOP-62 | 0.711 | 0.521 | 0.606 | 0.739 | 0.87 | 1.03 | 0.984 | 0.821 | 1.02 | 0.889 | 0.892 | 0.917 | 0.89 | 0.9 | 0.859 | 1.07 | 1.02 |
| IA-LM | – | – | – | – | 0.925 | 0.9 | 0.631 | 1.29 | 1.26 | – | – | – | – | 0.973 | 0.792 | 0.743 | 0.795 |
| LC-2-ad | 0.554 | 0.527 | 0.641 | 0.477 | 0.439 | 0.444 | 0.56 | 0.44 | 0.486 | 0.995 | 1.17 | 0.94 | 0.906 | 0.375 | 0.436 | 0.438 | 0.308 |
| LCLC-97TM1 | 0.796 | 0.61 | 0.869 | 0.824 | 0.42 | 0.355 | 0.479 | 0.324 | 0.457 | 0.773 | 0.788 | 0.673 | 0.764 | 0.423 | 0.28 | 0.358 | 0.398 |
| LCLC-103H | 0.424 | 0.428 | 0.429 | 0.436 | 1.12 | 1.03 | 1.06 | 1 | 1.01 | 1.02 | 0.938 | 0.976 | 0.856 | – | – | – | – |
| LK-2 | 0.281 | – | 0.341 | 0.301 | 0.238 | 0.24 | 0.219 | 0.227 | 0.213 | 0.217 | – | 0.208 | 0.197 | 0.913 | – | 0.705 | 0.83 |
| LOU-NH91 | 0.586 | 0.565 | 0.568 | 0.464 | 0.765 | 0.753 | 0.688 | 0.722 | 0.729 | 0.373 | 0.369 | 0.309 | 0.367 | 0.651 | 0.637 | 0.622 | 0.355 |
| LU99A | 0.533 | 0.64 | 0.527 | 0.402 | 0.565 | 0.654 | 0.615 | 0.558 | 0.568 | 0.277 | 0.26 | 0.235 | 0.208 | 0.758 | 0.789 | 0.767 | 0.486 |
| LXF-289 | 0.302 | 0.261 | 0.19 | 0.175 | 0.81 | 0.745 | 0.777 | 0.753 | 0.81 | 0.757 | 0.646 | 0.599 | 0.723 | 0.987 | 0.949 | 0.93 | 0.933 |
| NCI-H23 | 0.876 | 0.809 | 0.699 | 0.782 | 0.689 | 0.476 | 0.615 | 0.441 | 0.575 | 0.278 | – | 0.215 | 0.226 | 0.987 | 1.01 | 0.759 | 0.753 |
| NCI-H322M | 0.25 | 0.234 | 0.273 | – | 0.96 | 0.807 | 1 | 0.903 | 1.05 | 0.977 | 0.874 | 0.737 | – | 1.11 | 1.06 | 1.14 | 1.16 |
| NCI-H358 | 0.128 | 0.165 | 0.143 | 0.109 | 0.701 | 0.584 | 0.592 | 0.454 | 0.661 | 0.323 | 0.332 | 0.377 | 0.157 | – | – | – | – |
| NCI-H441 | 0.801 | 0.555 | 0.356 | 0.433 | 0.684 | 0.738 | 0.56 | 0.772 | 0.846 | 0.343 | 0.359 | 0.27 | 0.337 | 0.737 | 0.869 | – | 0.439 |
| NCI-H522 | 0.902 | 0.712 | 0.831 | 0.864 | – | – | – | – | – | 1.33 | 0.989 | 0.93 | 0.685 | – | – | – | – |
| NCI-H650 | 0.504 | 0.359 | 0.461 | 0.527 | 0.968 | 0.706 | 0.805 | 0.5 | 0.644 | 0.895 | 0.798 | 0.739 | 0.432 | – | – | – | – |
| NCI-H661 | 0.884 | 0.869 | 0.736 | 0.4 | 1.04 | 1.08 | – | 1.05 | 1.15 | 0.936 | 0.93 | 0.954 | 0.799 | – | – | – | – |
| NCI-H1299 | – | – | – | – | 0.998 | 0.914 | 0.924 | 0.952 | 0.891 | – | – | – | – | 1.01 | 0.998 | 1.06 | 1.05 |
| NCI-H1395 | 0.396 | 0.339 | 0.437 | 0.434 | – | – | – | – | – | 0.82 | 0.662 | 0.557 | 0.403 | 1.48 | 1.17 | 1.19 | 1.58 |
| NCI-H1563 | 0.453 | 0.443 | 0.514 | 0.399 | 0.867 | 0.841 | 0.862 | 0.848 | 0.847 | 0.52 | 0.517 | 0.478 | 0.534 | – | – | – | – |
| NCI-H1623 | 0.464 | 0.424 | 0.494 | – | – | – | – | – | – | 0.504 | 0.553 | 0.545 | – | – | – | – | – |
| NCI-H1703 | – | – | – | – | 0.67 | 0.712 | 0.147 | 0.219 | 0.125 | – | – | – | – | 1.51 | 1.29 | 1.19 | 0.833 |
| NCI-H1793 | 0.345 | 0.419 | 0.376 | 0.346 | – | – | – | – | – | 0.186 | 0.22 | 0.156 | 0.203 | 0.43 | 0.417 | 0.481 | – |
| NCI-H2342 | 0.31 | 0.296 | 0.322 | 0.31 | – | – | – | – | – | 0.741 | 0.739 | 0.716 | 0.598 | – | – | – | – |
| SW 900 | 0.582 | 0.735 | 0.467 | 0.611 | – | – | – | – | – | 0.191 | 0.177 | 0.162 | 0.145 | – | – | – | – |
